Experiment [1] has as its target T1, Muscarinic acetylcholine receptor M1 (Homo sapiens, UniProt P11229).
T1 sequence (P11229 whole entry): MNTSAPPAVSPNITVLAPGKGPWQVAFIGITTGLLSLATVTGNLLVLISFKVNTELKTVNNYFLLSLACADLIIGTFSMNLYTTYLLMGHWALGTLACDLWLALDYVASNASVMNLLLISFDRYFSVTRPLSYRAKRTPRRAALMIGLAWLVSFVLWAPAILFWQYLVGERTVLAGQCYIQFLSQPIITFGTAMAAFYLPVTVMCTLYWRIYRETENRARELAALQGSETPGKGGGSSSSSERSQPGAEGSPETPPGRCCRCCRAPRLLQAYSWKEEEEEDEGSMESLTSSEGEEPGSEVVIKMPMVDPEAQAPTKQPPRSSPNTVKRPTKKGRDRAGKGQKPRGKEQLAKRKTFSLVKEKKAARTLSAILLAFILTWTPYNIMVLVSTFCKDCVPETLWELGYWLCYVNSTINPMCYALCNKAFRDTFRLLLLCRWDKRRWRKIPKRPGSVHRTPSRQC
Kind of experiment: Ability to displace [3H]N-methylscopolamine from Muscarinic acetylcholine receptor M1 expressed in CHO cells. Type of experiment: cell-based.

Experiment [2] deals with T1, Muscarinic acetylcholine receptor M1. Kind of experiment: Ability to displace [3H]oxotremorine from Muscarinic acetylcholine receptor M1 expressed in CHO cells. In kind it is cell-based.

On to `Clc1cc(CO/N=C/C2CN3CCC2C3)on1` (centres undefined), for which the IC50 in experiment [1] is 14.9 µM; in experiment [2], 0.044 µM.
Consider `COc1cc(CO/N=C2\CN3CCC2C3)on1` (centres undefined), for which the values for the IC50 in experiment [1] and in experiment [2] were 40.5 µM and 0.131 µM, respectively.
On to `Clc1cc(CO/N=C/C2CN3CCC2CC3)on1` (centres undefined), for which the half-maximal inhibitory concentration (IC50) in experiment [1] was 23.5 µM; in experiment [2], 0.795 µM.
In the same order, the values of `Brc1cc(CO/N=C/C2CN3CCC2C3)on1` (centres undefined) are 17.7 µM and 0.385 µM.
`N#Cc1cc(CO/N=C2\CN3CCC2CC3)on1`: the figures for the half-maximal inhibitory concentration (IC50) in experiment [1] and in experiment [2] were 8.7 µM and 0.081 µM, respectively.
Take `Clc1cc(CO/N=C2\CN3CCC2C3)on1` (centres undefined): the 50% inhibitory concentration (IC50) in experiment [1] is 36.3 µM; in experiment [2] it was 0.023 µM.
In the case of `Brc1cc(CO/N=C2\CN3CCC2C3)on1` (centres undefined), the IC50 was 48.8 µM in experiment [1] and 0.079 µM in experiment [2].
For the compound `COc1cc(CO/N=C2\CN3CCC2CC3)on1`, the results for the IC50 in experiment [1] and in experiment [2] were 35.6 µM and 0.362 µM, respectively.
For the compound `Brc1cc(CO/N=C/C2CN3CCC2CC3)on1` (centres undefined), the half-inhibitory concentration (IC50) is 8.4 µM in experiment [1] and 1.22 µM in experiment [2].
As to `Brc1cc(CO/N=C2\CN3CCC2CC3)on1`, the 50% inhibitory concentration (IC50) in experiment [1] was determined as 11.5 µM; in experiment [2], 0.072 µM.
As to `COc1cc(CO/N=C/C2CN3CCC2C3)on1` (centres undefined), the IC50 in experiment [1] came out at 16.7 µM; in experiment [2] it was 0.287 µM.
Regarding `COc1cc(CO/N=C/C2CN3CCC2CC3)on1` (centres undefined), the IC50 worked out at 29.5 µM in experiment [1] and 1.64 µM in experiment [2].
Consider `N#Cc1cc(CO/N=C2\CN3CCC2C3)on1` (centres undefined), for which the figures for the IC50 in experiment [1] and in experiment [2] were 32.5 µM and 0.082 µM, respectively.
Regarding `N#Cc1cc(CO/N=C/C2CN3CCC2C3)on1` (centres undefined), the values for the IC50 in experiment [1] and in experiment [2] were 189 µM and 1.86 µM, respectively.
For the compound `N#Cc1cc(CO/N=C/C2CN3CCC2CC3)on1` (centres undefined), the IC50 is 133 µM in experiment [1] and 0.341 µM in experiment [2].
In the case of `Clc1cc(CO/N=C2\CN3CCC2CC3)on1`, the IC50 in experiment [1] worked out at 13.8 µM; in experiment [2], 0.057 µM.
For the compound `O=C1CCCN1CC#CCN1CCCC1` [OXOTREMORINE], the IC50 came to 27.1 µM in experiment [1] and 0.0023 µM in experiment [2].

The record behind these values is ChEMBL document CHEMBL1133831 (Bioorg Med Chem Lett, 2001).
